Measurements as given in US10501800B2, “Breast cancer prognosis” (Regents of the University of Minnesota, priority 2012, dated 2019).
Entries after “also recorded” stand apart in the source; their conditions may differ.

Columns and labels:
PR protein expression = assay: Western blotting for PR in doxorubicin-treated T47D cells expressing inducible PR (PARP cleavage assay); assay type: cell-based, human; details: doxorubicin 8 uM, 24 h
[1] = system: PR target genes (CHN2, RGS2, ACOT6) in BT-474 human breast cancer cells; assay: RT-qPCR of PR target genes in BT-474 cells, with or without MEK inhibitor; assay type: cell-based
Method: For reverse transcription quantitative polymerase chain reaction (RT-qPCR) assays, 5×10^5 cells/well were plated in 6-well dishes, serum starved in modified IMEM for 1 day before treatments (see individual figures). RNA was extracted using TriPure reagent (Roche, catalog #11667157001) and cDNA was created using the Transcriptor cDNA first-strand cDNA synthesis kit (Roche, catalog #04897030001). Relative expression levels were determined by qPCR assays performed on a Roche LightCycler II using SYBR green master-mix (Roche, catalog #04887352001). Target gene quantification levels were normalized to the expression of standard housekeeper genes: TBP, ACTB, and/or GAPDH. For cells expressing inducible PR, the protocol was the same as above, except prior to ligand treatments, the cells were induced with AP21967 (10^−9 M) for 2 d.
For experiments using MEK inhibitors, BT-474 cells were plated in […] dishes at 5×10^5 cells/well. One day later, the cells were washed and serum starved in modified IMEM for 1d. These cells were pre-treated with the MEK inhibitor U0126 (5 uM, EMD Chemicals, catalog #662005) for 30 min R5020 (10^−8 M) and/or RU486 (10^−7 M) was then added to cell culture wells for 6 h before RNA/protein isolation and RT-qPCR/western blotting was performed, as described above.

[2] = system: PR Ser294 phosphorylation; assay: Western blotting for PR Ser294 phosphorylation in BT-474 cells; assay type: cell-based, human
Method: (§1) T47Dco parental cell lines were characterized previously (Horwitz et al., 1982). T47D cells stably expressing PR were created by molecular cloning of cDNAs encoding either WT, K388R, S294A, or K388R/S294A PR into a pIRES-neo3 expression vector (Clontech, catalog #631621), followed by transfection of vectors into T47D-Y cells (Sartorius et al., 1994) using FuGENE HD (Roche, catalog #04709713001). Single-cell clones were expanded under high G418 selection (500 ug/ml) and maintained in low G418 selection (200 ug/ml) (EMD Chemicals, catalog #345810). These cells were maintained in complete minimal essential medium (cMEM) supplemented with 5% fetal bovine serum (FBS), 1% non-essential amino acids (NEAA), 1% penicillin/streptomycin, 6 ng/ml insulin (CellGro, catalog #10-010-CV). T47D cells expressing inducible PR were described previously (Hagan et al., 2011). Inducible PR expression was achieved by adding AP21967 (10^−9 M, Ariad Pharmaceuticals, Cambridge, Mass.) to cell culture medium for a minimum treatment time of 2 d. MCF-7 cell lines expressing PR were created by transfection of pIRES-neo3 vectors containing cDNA inserts encoding either WT or KR PR into cells using FuGENE HD. Single-cell clones were expanded under high G418 selection and maintained in low G418 selection. […]

[3] = system: RGS2 expression in T47D cells expressing WT PR or KR PR; assay: RT-qPCR of PR target genes in T47D cells stably expressing WT or KR PR; assay type: cell-based, human; details: R5020 6 h
Method: as §1, with “2011).” for “2011). Inducible PR expression was achieved by adding AP21967 (10^−9 M, Ariad Pharmaceuticals, Cambridge, Mass.) to cell culture medium for a minimum treatment time of 2 d. MCF-7 cell lines expressing PR were created by transfection of pIRES-neo3 vectors containing cDNA inserts encoding either WT or KR PR into cells using FuGENE HD. Single-cell clones were expanded under high G418 selection and maintained in low G418 selection.”
For reverse transcription quantitative polymerase chain reaction (RT-qPCR) assays, 5×10^5 cells/well were plated in 6-well dishes, serum starved in modified IMEM for 1 day before treatments (see individual figures). […] Relative expression levels were determined by qPCR assays performed on a Roche LightCycler II using SYBR green master-mix (Roche, catalog #04887352001). Target gene quantification levels were normalized to the expression of standard housekeeper genes: TBP, ACTB, and/or GAPDH. […]

[4] = system: T47D cells expressing inducible PR (iWT, iKR); assay: MTT proliferation assay in T47D cells expressing inducible PR; assay type: cell-based, human; details: cells expressing iWT or iKR PRs vs un-induced or untreated counterparts; R5020
Method: Cell proliferation was measured using MTT assays (3-[4,5-dimethylthiazol-2-yl]-2,5-diphenyltetrazolium bromide, Sigma catalog #M2128). In 24-well plates, 1×10^4 cells/well were plated in cMEM (inducible PR expression was induced with AP21967 (10^−9 M) for 2 days), cells were washed and steroid starved in modified IMEM supplemented with 5% dextran-coated charcoal-treated (DCC) FBS for 1 day before the addition of R5020 (10^−8 M). At days 0, 2, 4, 6, cell proliferation was determined by adding 60 ul MTT (5 mg/ml) to each 0.5 ml cell culture well for 3 hours, medium was carefully removed and solublization solution (90% v/v DMSO/PBS) was added to lyse the cells. Lysate absorbance (650 and 570 nm) was measured using a plate reader. 650 nm measurements were subtracted from 570 nm measurements and sample means were normalized to day zero.

[5] = system: PR target genes in T47D cells expressing WT PR, SUMO-deficient PR (KR) or empty vector; assay: Gene expression profiling (Illumina HT-12v4) of T47D cell lines treated with progesterone or antiprogestins; assay type: cell-based, human; details: for expression of progesterone-regulated PR target genes: T47D cells expressing SUMO-deficient PR (KR), antiprogestin 10^−7 M alone or plus progesterone 10^−8 M
Method: T47D cells stably expressing pIRES-neo3 empty vector, WT or KR PR were serum starved in modified IMEM (Gibco, catalog #A10488) for 1 day, treated with R5020 (10^−8 M) or vehicle control for 6 h before RNA extraction using a RNeasy kit (QIAgen, catalog #74104). Six h of progestin treatment allowed for substantial PR-dependent gene expression as compared to prior studies (Jacobsen et al., 2005; Richer et al., 2002). DNase I treated (QIAgen, catalog #79254) RNA samples from duplicate experiments were prepared for expression analysis using the Illumina HT-12v4 bead chip platform according to manufacture's protocols. Data were analyzed within R software using the Bioconductor (Gentleman et al., 2004) package called lumi where raw intensities were log2 transformed and quantile normalized. Differentially expressed genes were analyzed using the limma package, where empirical Bayes was used to better estimate the variance of the genes. Gene expression data presented contain log2 normalized intensities and biological comparisons presented (e.g. R5020/vehicle) contain log2 fold change with the Benjamini and Hochberg (BH) adjusted P value (Benjamini and Hochberg, 1995). To generate the heat map in FIG. 1C, unsupervised hierarchical clustering of genes was carried out using heatmap. 2 function in the R package gplots. Clustering was performed using Euclidean distance and complete linkage. Rows were scaled to have mean zero and standard deviation equal to one.
Gene expression profiles in T47D cell lines treated with antiprogestins were obtained using identical methods as described above, except for these notable differences. After serum starvation, cells stably expressing empty vector, WT, or KR PR were treated for 6 hours under one of eight possible conditions: (1) ethanol (vehicle control), (2) progesterone (10^−8 M), (3) RU486 (10^−7 M), (4) aglepristone (10^−7 M), (5) onapristone (10^−7 M), (6) RU486 (10^−7 M) plus progesterone (10^−8 M), (7) aglepristone (10^−7 M) plus progesterone (10^−8 M), or (8) onapristone (10^−7 M) plus progesterone (10^−8 M). Gene expression levels were measured, normalized, analyzed, and heat maps were generated using the methods described above.
Raw microarray data from two independent microarray experiments (both performed using the Illumina HT-12v4 platform described above) were combined and normalized together within R software using the Bioconductor (Gentleman et al., 2004) package called lumi where raw intensities were log 2 transformed and quantile normalized.
Sample Sizes & Composition: For the first analysis, two KR cell replicates were used that had been stimulated with R5020 a synthetic progestin in the first experiment and three KR cell replicates that had been stimulated with progesterone in the second experiment. The same was accomplished regarding the corresponding WT cell replicates. Pertaining to the first analysis, therefore, a sample size of n=5 was used for each of the two groups (KR & WT). Regarding the second analysis, we used three KR cell replicates that had been co-treated with progesterone plus onapristone in the second experiment; and we used three WT cell replicates that had been co-treated with progesterone plus onapristone also in the second experiment (n=3 for each of the two groups). Regarding the third analysis, we used three KR cell replicates that had been co-treated with progesterone plus RU486 in the second experiment; and we used three WT cell replicates that had been co-treated with progesterone plus RU486 also in the second experiment (n=3 for each of the two groups). Regarding the fourth analysis, three KR cell replicates was used that had been co-treated with progesterone plus onapristone; and three WT cell replicates were used that had been treated with vehicle control (ethanol) (n=3 for each of the two groups). […]

[6] = system: MAP1A and RGS2 mRNA in T47D cells stably expressing WT PR; assay: RT-qPCR with epidermal growth factor (EGF) treatment in T47D cells expressing WT PR; assay type: cell-based, human
Method: For RT-qPCR assays involving epidermal growth factor (EGF) treatment, cells were plated at 5×10^5 cells/well in 6-well dishes and serum starved for 2 days in modified IMEM. Cells were pre-treated with 100 ng/ml EGF (Sigma, catalog #E9644) before treatment with R5020 (10^−8 M).

[7] = pre-treatment with U0126 5 uM for 30 min

COc1cccc2c1C(=O)c1c(O)c3c(c(O)c1C2=O)C[C@@](O)(C(=O)CO)C[C@@H]3O[C@H]1C[C@H](N)[C@H](O)[C@H](C)O1 [Doxorubicin, doxorubicin]
WT and KR PR protein expression (PR protein expression): reduced

CCC(=O)[C@@]1(C)CC[C@H]2[C@@H]3CCC4=CC(=O)CCC4=C3CC[C@@]21C [R5020]
ACOT6 expression ([1]; R5020 10^−8 M, 6 h): induced | upregulation of CHN2 mRNA ([1]; R5020 10^−8 M, 6 h): 17 fold | upregulation of RGS2 mRNA ([1]; R5020 10^−8 M, 6 h): 26 fold | PR-B Ser294 phosphorylation ([2]; R5020 treatment): elevated | RGS2 expression response to R5020 ([3]; T47D cells expressing KR PR): ~20 fold | RGS2 expression response to R5020 ([3]; T47D cells expressing WT PR): ~2 fold | cell growth [4]: grew faster

N#CC(=C(/N)Sc1ccccc1N)/C(C#N)=C(\N)Sc1ccccc1N [U0126]
R5020-induced ACOT6 expression (control gene) ([1]; MEK kinase inhibition, U0126 5 uM): completely insensitive | R5020-induced CHN2 and RGS2 expression [1, 7]: partially, but significantly, diminished | R5020-induced PR Ser294 phosphorylation [2, 7]: blocked

C/C=C\[C@]1(O)CC[C@H]2[C@@H]3CCC4=CC(=O)CCC4=C3[C@@H](c3ccc(N(C)C)cc3)C[C@@]21C [aglepristone, (8S,11R,13S,14S,17R)-11-(4-dimethylaminophenyl)-17-hydroxy-13-methyl-17-[(Z)-prop-1-enyl]-1,2,6,7,8,11,12,14,15,16-decahydrocyclopenta[a]phenanthren-3-one]
expression of progesterone-regulated PR target genes ([5]; 6 h): caused many PR target genes to become upregulated | agonistic activity ([5]; cells expressing hyperactive / SUMO-deficient PR (KR)): substantial agonistic activity; also recorded: agonistic properties

CN(C)c1ccc([C@H]2C[C@]3(C)[C@@H](CC[C@]3(O)CCCO)[C@@H]3CCC4=CC(=O)CCC4=C32)cc1 [onapristone, (8S,11R,13R,14S,17S)-11-[4-(dimethylamino)phenyl]-17-hydroxy-17-(3-hydroxypropyl)-13-methyl-1,2,6,7,8,11,12,14,15,16-decahydrocyclopenta[a]phenanthren-3-one]
number of the 29 KR>WT genes stimulated by onapristone treatment alone ([5]; KR cells, onapristone alone): none | number of the 29 KR>WT genes stimulated by onapristone plus P4 treatment ([5]; KR cells, onapristone plus P4): 13 genes | number of genes significantly differentially expressed, KR cells (onapristone plus progesterone) vs WT cells (ethanol) ([5]; KR treated with onapristone plus progesterone, WT treated with vehicle control): 5 genes | expression of progesterone-regulated PR target genes ([5]; 6 h): did not cause these PR target genes to be upregulated; also recorded: do not stimulate gene expression | number of genes significantly differentially expressed, WT cells (progesterone plus onapristone) vs WT cells (ethanol) ([5]; WT cells): only one gene | number of genes significantly differentially expressed between KR and WT cells ([5]; both cell lines co-treated with progesterone plus the antiprogestin): 8 genes | significant differential expression of the 15 biomarker genes between KR and WT cells ([5]; both cell lines co-treated with progesterone plus the antiprogestin, with the exception of one gene (CDH10)): completely annulled | antagonist activity ([5]; cells expressing WT or KR PR): effective antagonist | reversal of the effects of progesterone exposure ([5]; cells expressing activated PR (KR), onapristone in the presence of progesterone): can effectively reverse | inhibition of expression of PR target genes ([5]; cells that express hyperactive PR (phosphorylated and deSUMOylated; KR)): can successfully inhibit | reversal of transcriptional differences induced by progesterone ([5]; cells with a WT PR receptor, progesterone plus onapristone): almost completely reverse

CC(=O)[C@H]1CC[C@H]2[C@@H]3CCC4=CC(=O)CC[C@]4(C)[C@H]3CC[C@]12C [progesterone]
gene expression after progesterone (P4) treatment ([5]; both WT and KR cells, progesterone 10^−8 M, 6 h): significantly upregulated

EGF: epidermal growth factor (Sigma) (NSDSECPLSHDGYCLHDGVCMYIEALDKYACNCVVGYIGERCQYRDLKWWELR; Epidermal growth factor; UniProt P01133 971-1023, looked up)
MAP1A and RGS2 mRNA expression ([6]; EGF alone (100 ng/ml) over a 2-day time course): insensitive | progestin stimulated mRNA expression of MAP1A and RGS2 ([6]; EGF pre-treatment (100 ng/ml) followed by R5020 10^−8 M): significantly augmented
